In patent publication US11214540B2, “Compositions for treating neurodegenerative diseases” (COGNITION THERAPEUTICS, INC., priority 2017, dated 2022):

Assay: log P
Format: physicochemical
Excerpt: The term “log P” refers to the partition coefficient of a compound. The partition coefficient is the ratio of concentrations of un-ionized compound in each of two solution phases, for example, octanol and water. To measure the partition coefficient of ionizable solute compounds, the pH of the aqueous phase is adjusted such that the predominant form of the compound is un-ionized. The logarithm of the ratio of concentrations of the un-ionized solute compound in the solvents is called log P. The log P is a measure of lipophilicity. For example, log Poct/wat=log([solute]octanol/[solute]un-ionized,water).
Combined Results for particular compounds described herein, with respect to log P, membrane trafficking (uM), sigma-2 receptor affinity, sigma-1 receptor affinity microsomal stability in mouse liver microsomes (MLM) (t1/2, min), t1/2 normalized to CT)10914 and in vitro toxicity potassium channel hERG (IC50, nM) are provided in Table 1: […]

Row | Compound | log P
1 | CC(C)(CC(c1ccccc1)N1CCCCC1)c1ccc(Cl)cc1 (stereo not shown) [Compound 117] | 6.47
2 | COCCCC1CCN(C(C=C(C)C)CC(C)(C)c2ccc(OC(C)C)cc2)CC1 (stereo not shown) [Compound 171] | 6.5
3 | COC(=O)N1CCN(C(=O)c2cccc3c2CN(C(C)(C)CCc2ccc(O)c(OC)c2)C3)CC1 [Compound 272] | 3.35
4 | COC(=O)[C@H]1CCCN1CCC(C)(C)c1ccccc1 [Compound 294] | 3.48
5 | COc1ccc(C(C)(C)CC(c2ccccc2)N2CCC(C3CCOCC3)CC2)cc1 (stereo not shown) [Compound 122] | 5.91
6 | COC(=O)C1CCN(CCC(C)(C)c2ccc(Cl)cc2)CC1 [Compound 291] | 4.06
7 | CC(C)=C[C@H](CC(C)(C)c1ccc(C(F)(F)F)cc1)N1CCC(C)(O)CC1 [Compound 265] | 5.13
8 | CC(C)=CC(CC(C)(C)c1ccc(OC(C)(C)C)cc1)N1CCC(C)(O)CC1 (stereo not shown) [Compound 169] | 5.15
9 | CC(C)(CCN1CCC(CO)CC1)c1ccc(Cl)cc1 [Compound 283] | 3.62
10 | COc1cc(CCC(C)(C)N2Cc3cccc(C(=O)N4CCN(C(=O)OCc5oc(=O)oc5C)CC4)c3C2)ccc1O [Compound 309] | 3.96
11 | CC(C)=CC(CC(C)(C)c1ccc(S(C)(=O)=O)cc1)N1CCC(C(C)C)CC1 (stereo not shown) [Compound 89] | 5.37
12 | COc1cc(CCC(C)(C)N2Cc3cccc(C(=O)N4CCN(C(=O)[C@@H]5CCCN5)CC4)c3C2)ccc1O [Compound 260] | 2.46
13 | COC(=O)N1CCN(C(C=C(C)C)CC(C)(C)c2ccc(Cl)cc2)CC1 (stereo not shown) [Compound 197] | 4.95
14 | CC(C)(CC(c1ccccc1)N1CCOCC1)c1ccc(Cl)cc1 (stereo not shown) [Compound 120] | 5.4
15 | CC(C)=C[C@@H](CC(C)(C)c1ccc(F)cc1)N1CCC[C@@H]1CO [Compound 241] | 4.57

Further lines, results first:

Row | log P | Compound
16 | 3.38 | CC(C)=CC(CC(C)(C)c1ccccc1)N1CCNC(=O)C1 (stereo not shown) [Compound 227]
17 | 4.26 | CC(C)=CC(CC(C)(C)c1ccc(C(F)(F)F)cc1)N1CCNC(=O)C1 (stereo not shown) [Compound 206]
18 | 4.59 | CC(C)=CC(CC(C)(C)c1ccc(OC(C)C)cc1)N1CCC(O)CC1 (stereo not shown) [Compound 178]
19 | 5.95 | COC[C@@H]1CCCN1C(C=C(C)C)CC(C)(C)c1ccc(C(F)(F)F)cc1 (stereo partly shown) [Compound 275]
20 | 4.08 | COC(=O)[C@H]1CCCN1CCC(C)(C)c1ccc(Cl)cc1 [Compound 290]
21 | 4.69 | CCOC(=O)C1CCN(CCC(C)(C)c2ccc(C(F)(F)F)cc2)CC1 [Compound 311]
22 | 3.62 | COC(=O)C1CCCN1CCC(C)(C)c1ccc(F)cc1 (stereo not shown) [Compound 320]
23 | 3.6 | COC(=O)C1CCN(CCC(C)(C)c2ccc(F)cc2)CC1 [Compound 326]
24 | 3.37 | CC(C)(CCN1CC[C@@H](O)C1)c1ccc(C(F)(F)F)cc1 [Compound 315]
25 | 1.63 | COc1cc(CCC(C)(C)N2Cc3cccc(C(=O)N4CCN(C(=O)CNC(C)=O)CC4)c3C2)ccc1O [Compound 279]
26 | 3.65 | COC[C@H]1CCCN1CCC(C)(C)c1ccccc1 [Compound 300]
27 | 5.31 | CC(C)=C[C@H](CC(C)(C)c1ccc(C(F)(F)F)cc1)N1CCC[C@@H]1CO [Compound 243]
28 | 4.85 | COCCOCCC1CCN(CCC(C)(C)c2ccc(C(F)(F)F)cc2)CC1 [Compound 314]
29 | 3.91 | COCCC1(O)CCN(C(C=C(C)C)CC(C)(C)c2ccccc2)CC1 (stereo not shown) [Compound 219]
30 | 4.26 | COC[C@@H]1CCCN1CCC(C)(C)c1ccc(Cl)cc1 [Compound 289]
31 | 3.75 | CC(C)=CC(CC(C)(C)c1ccc(F)cc1)N1CCN(C)C(=O)C1 (stereo not shown) [Compound 203]
32 | 5.04 | CC(C)=CC(CC(C)(C)c1ccc(Cl)cc1)N1CCC[C@H]1CO (stereo partly shown) [Compound 237]
33 | 3.98 | CC(C)=CC(CC(C)(C)c1ccc(Cl)cc1)N1CCNC(=O)C1 (stereo not shown) [Compound 224]
34 | 6.46 | CC(C)=CC(CC(C)(C)c1ccc(C(F)(F)F)cc1)N1CCN(C(=O)c2ccccc2)CC1 (stereo not shown) [Compound 155]
